These molecules were tested against PI3Kβ (Homo sapiens (Human), UniProt P42338) (assay: In vitro enzyme inhibition assay (Kinase Glo based enzyme activity assay)). Settings: Test (a), human recombinant enzyme; read-out: PI3Kβ inhibition, IC50.
Assay type: biochemical
Protocol: (a) In Vitro Enzyme Inhibition Assay
The inhibition of PI3Kβ, PI3Kα, PI3Kγ and PI3Kδ was evaluated in a Kinase Glo based enzyme activity assay using human recombinant enzymes. The assay measures depletion of ATP after incubation with enzyme, PIP2 and ATP plus compound. ATP at the end of the reaction is detected by addition of Kinase Glo reagent, in this the Ultra Glo™ luciferase (Promega) uses the ATP as a substrate to catalyze the mono-oxygenation of luciferin and the generation of light. A direct relationship exists between the luminescence measured with the Kinase-Glo Plus Reagent and the amount of ATP remaining in a completed kinase reaction and luminescence is inversely related to kinase activity. Twelve different compound concentrations were tested and raw data from the inhibition of PI3 Kb, PI3Kα, PI3Kγ and PI3Kδ was plotted versus inhibitor concentration.
Compounds in 100% DMSO were added to assay plates by acoustic dispensing. PI3Kβ was added in a Tris buffer (50 mM Tris pH7.4, 0.05% CHAPS, 2.1 mM DTT, and 10 mM MgCl2) and allowed to preincubate with compound for 20 minutes prior to addition of substrate solution containing PIP2 and ATP. The enzyme reaction was stopped after 80 minutes by the addition of Kinase Glo detection solution. Plates were left for 30 minutes at room temperature then read on a Pherastar Instrument (Luminescence ATP 384 program) setting gain on max well. The final concentration of DMSO, ATP and PIP2 in the assay were, 1%, 80 μM, and 80 μM respectively.
IC50 values were calculated using a log curve fitting to a non-linear regression package, fitting raw data to inhibitor concentration.

Chain of PI3Kβ (P42338 whole entry): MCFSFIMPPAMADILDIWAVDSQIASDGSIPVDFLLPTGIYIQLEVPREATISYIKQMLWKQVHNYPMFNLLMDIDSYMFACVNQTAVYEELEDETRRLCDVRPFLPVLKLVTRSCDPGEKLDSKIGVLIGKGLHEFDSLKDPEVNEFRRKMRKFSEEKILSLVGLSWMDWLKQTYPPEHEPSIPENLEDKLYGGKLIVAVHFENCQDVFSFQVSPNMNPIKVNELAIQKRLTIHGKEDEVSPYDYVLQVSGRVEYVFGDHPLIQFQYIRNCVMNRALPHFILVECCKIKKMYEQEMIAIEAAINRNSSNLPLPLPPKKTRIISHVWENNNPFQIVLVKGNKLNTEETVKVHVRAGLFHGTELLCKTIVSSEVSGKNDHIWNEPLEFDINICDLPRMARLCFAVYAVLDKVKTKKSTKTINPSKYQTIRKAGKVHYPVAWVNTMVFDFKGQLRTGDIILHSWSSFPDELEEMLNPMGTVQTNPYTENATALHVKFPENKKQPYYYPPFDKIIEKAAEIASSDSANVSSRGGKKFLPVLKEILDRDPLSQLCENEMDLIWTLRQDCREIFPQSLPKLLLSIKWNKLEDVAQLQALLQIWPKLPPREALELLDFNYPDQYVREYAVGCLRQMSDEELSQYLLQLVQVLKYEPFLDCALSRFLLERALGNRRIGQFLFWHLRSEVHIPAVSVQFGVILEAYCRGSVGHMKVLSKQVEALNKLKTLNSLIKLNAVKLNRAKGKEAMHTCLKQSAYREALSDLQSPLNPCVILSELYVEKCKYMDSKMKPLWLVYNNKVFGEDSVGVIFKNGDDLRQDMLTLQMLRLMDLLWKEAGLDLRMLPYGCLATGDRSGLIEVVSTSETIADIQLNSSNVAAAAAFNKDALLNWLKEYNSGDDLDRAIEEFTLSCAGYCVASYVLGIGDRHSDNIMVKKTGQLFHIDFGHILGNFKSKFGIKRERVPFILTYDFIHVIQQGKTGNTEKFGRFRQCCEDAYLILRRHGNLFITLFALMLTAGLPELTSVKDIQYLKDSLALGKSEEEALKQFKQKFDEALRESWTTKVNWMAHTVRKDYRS
Chain of PI3Kβ (P27986 whole entry partner): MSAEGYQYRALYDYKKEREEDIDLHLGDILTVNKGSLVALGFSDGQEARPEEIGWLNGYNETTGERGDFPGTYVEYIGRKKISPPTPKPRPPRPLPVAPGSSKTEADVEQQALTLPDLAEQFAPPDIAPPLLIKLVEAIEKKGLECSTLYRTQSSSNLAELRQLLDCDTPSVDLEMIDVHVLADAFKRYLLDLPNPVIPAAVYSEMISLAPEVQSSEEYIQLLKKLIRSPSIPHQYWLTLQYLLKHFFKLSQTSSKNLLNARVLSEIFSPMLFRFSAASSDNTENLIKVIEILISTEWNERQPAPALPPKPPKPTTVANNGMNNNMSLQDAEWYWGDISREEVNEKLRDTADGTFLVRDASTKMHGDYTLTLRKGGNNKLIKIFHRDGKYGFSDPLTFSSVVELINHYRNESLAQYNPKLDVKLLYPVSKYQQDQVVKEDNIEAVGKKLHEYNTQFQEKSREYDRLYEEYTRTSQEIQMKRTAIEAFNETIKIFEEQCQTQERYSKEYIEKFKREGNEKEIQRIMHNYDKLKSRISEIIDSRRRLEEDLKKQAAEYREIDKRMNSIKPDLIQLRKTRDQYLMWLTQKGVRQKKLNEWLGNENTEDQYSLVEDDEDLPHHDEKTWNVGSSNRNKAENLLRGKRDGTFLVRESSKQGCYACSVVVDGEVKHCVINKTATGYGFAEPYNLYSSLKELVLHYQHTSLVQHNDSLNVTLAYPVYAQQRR

IC50 [nM] | SMILES
5 | CC(Nc1cc(F)cc(F)c1)c1cc(C(=O)N2CCCCC2)cc2c(=O)cc(N3CCOCC3)oc12 (stereo not shown) [Example 4.10, 8-(1-(3,5-difluorophenylamino)ethyl)-2-morpholino-6-(piperidine-1-carbonyl)-4H-chromen-4-one]
2 | CCN(C)C(=O)c1cc(C(C)Nc2cc(F)cc(F)c2)c2oc(N3CCOCC3)cc(=O)c2c1 (stereo not shown) [Example 4.11, 8-(1-(3,5-difluorophenylamino)ethyl)-N-ethyl-N-methyl-2-morpholino-4-oxo-4H-chromene-6-carboxamide]
4 | CC(Nc1cc(F)cc(F)c1)c1cc(C(=O)N2CC(O)C2)cc2c(=O)cc(N3CCOCC3)oc12 (stereo not shown) [Example 4.12, 8-(1-(3,5-difluorophenylamino)ethyl)-6-(3-hydroxyazetidine-1-carbonyl)-2-morpholino-4H-chromen-4-one]
9 | CC(Nc1cc(F)cc(F)c1)c1cc(C(=O)N2CC(F)C2)cc2c(=O)cc(N3CCOCC3)oc12 (stereo not shown) [Example 4.13, 8-(1-(3,5-difluorophenylamino)ethyl)-6-(3-fluoroazetidine-1-carbonyl)-2-morpholino-4H-chromen-4-one]
4 | CC(Nc1cc(F)cc(F)c1)c1cc(C(=O)NCCO)cc2c(=O)cc(N3CCOCC3)oc12 (stereo not shown) [Example 4.14, 8-(1-(3,5-difluorophenylamino)ethyl)-N-(2-hydroxyethyl)-2-morpholino-4-oxo-4H-chromene-6-carboxamide]
4 | COCCNC(=O)c1cc(C(C)Nc2cc(F)cc(F)c2)c2oc(N3CCOCC3)cc(=O)c2c1 (stereo not shown) [Example 4.15, 8-(1-(3,5-difluorophenylamino)ethyl)-N-(2-methoxyethyl)-2-morpholino-4-oxo-4H-chromene-6-carboxamide]
9 | CCCNC(=O)c1cc(C(C)Nc2cc(F)cc(F)c2)c2oc(N3CCOCC3)cc(=O)c2c1 (stereo not shown) [Example 4.16, 8-(1-(3,5-difluorophenylamino)ethyl)-2-morpholino-4-oxo-N-propyl-4H-chromene-6-carboxamide]
5 | CCNC(=O)c1cc(C(C)Nc2cc(F)cc(F)c2)c2oc(N3CCOCC3)cc(=O)c2c1 (stereo not shown) [Example 4.17, 8-(1-(3,5-difluorophenylamino)ethyl)-N-ethyl-2-morpholino-4-oxo-4H-chromene-6-carboxamide]
4 | CC(Nc1cc(F)cc(F)c1)c1cc(C(=O)NCCF)cc2c(=O)cc(N3CCOCC3)oc12 (stereo not shown) [Example 4.18, 8-(1-(3,5-difluorophenylamino)ethyl)-N-(2-fluoroethyl)-2-morpholino-4-oxo-4H-chromene-6-carboxamide]
23 | COCCCNC(=O)c1cc(C(C)Nc2cc(F)cc(F)c2)c2oc(N3CCOCC3)cc(=O)c2c1 (stereo not shown) [Example 4.19, 8-(1-(3,5-difluorophenylamino)ethyl)-N-(3-methoxypropyl)-2-morpholino-4-oxo-4H-chromene-6-carboxamide]
5 | CC(Nc1cc(F)cc(F)c1)c1cc(C(=O)N2CCC[C@@H]2CO)cc2c(=O)cc(N3CCOCC3)oc12 (stereo partly drawn) [Example 4.20, 8-(1-(3,5-difluorophenylamino)ethyl)-6-((R)-2-(hydroxymethyl)pyrrolidine-1-carbonyl)-2-morpholino-4H-chromen-4-one]
4 | CC(Nc1cc(F)cc(F)c1)c1cc(C(=O)N2CCC[C@H]2CO)cc2c(=O)cc(N3CCOCC3)oc12 (stereo partly drawn) [Example 4.21, 8-(1-(3,5-difluorophenylamino)ethyl)-6-((S)-2-(hydroxymethyl)pyrrolidine-1-carbonyl)-2-morpholino-4H-chromen-4-one]
4 | CNC(=O)c1cc(C(C)Nc2cc(F)cc(F)c2)c2oc(N3CCOCC3)cc(=O)c2c1 (stereo not shown) [Example 4.22, 8-(1-(3,5-difluorophenylamino)ethyl)-N-methyl-2-morpholino-4-oxo-4H-chromene-6-carboxamide]
3 | CC(Nc1cc(F)cc(F)c1)c1cc(C(=O)NCC2CC2)cc2c(=O)cc(N3CCOCC3)oc12 (stereo not shown) [Example 4.23, N-(cyclopropylmethyl)-8-(1-(3,5-difluorophenylamino)ethyl)-2-morpholino-4-oxo-4H-chromene-6-carboxamide]
4 | COCCN(C)C(=O)c1cc(C(C)Nc2cc(F)cc(F)c2)c2oc(N3CCOCC3)cc(=O)c2c1 (stereo not shown) [Example 4.24, 8-(1-(3,5-difluorophenylamino)ethyl)-N-(2-methoxyethyl)-N-methyl-2-morpholino-4-oxo-4H-chromene-6-carboxamide]
5 | CC(Nc1cc(F)cc(F)c1)c1cc(C(=O)N2CCCOCC2)cc2c(=O)cc(N3CCOCC3)oc12 (stereo not shown) [Example 4.25, 8-(1-(3,5-difluorophenylamino)ethyl)-2-morpholino-6-(1,4-oxazepane-4-carbonyl)-4H-chromen-4-one]
4 | COC1CCN(C(=O)c2cc(C(C)Nc3cc(F)cc(F)c3)c3oc(N4CCOCC4)cc(=O)c3c2)CC1 (stereo not shown) [Example 4.26, 8-(1-(3,5-difluorophenylamino)ethyl)-6-(4-methoxypiperidine-1-carbonyl)-2-morpholino-4H-chromen-4-one]
8 | CC(c1cc(C(=O)N2CCC(O)CC2)cc2c(=O)cc(N3CCOCC3)oc12)N(C)c1cc(F)cc(F)c1 (stereo not shown) [Example 5.01, 8-(1-((3,5-difluorophenyl)(methyl)amino)ethyl)-6-(4-hydroxypiperidine-1-carbonyl)-2-morpholino-4H-chromen-4-one]
7 | CC(c1cc(C(=O)N2CCC(O)C2)cc2c(=O)cc(N3CCOCC3)oc12)N(C)c1cc(F)cc(F)c1 (stereo not shown) [Example 5.02, 8-(1-((3,5-difluorophenyl)(methyl)amino)ethyl)-6-(3-hydroxypyrrolidine-1-carbonyl)-2-morpholino-4H-chromen-4-one]
7 | CC(c1cc(C(=O)N2CCC[C@@H]2CO)cc2c(=O)cc(N3CCOCC3)oc12)N(C)c1cc(F)cc(F)c1 (stereo partly drawn) [Example 5.03, 8-(1-((3,5-difluorophenyl)(methyl)amino)ethyl)-6-((R)-2-(hydroxymethyl)pyrrolidine-1-carbonyl)-2-morpholino-4H-chromen-4-one]
5 | CC(c1cc(C(=O)N2CCCC2)cc2c(=O)cc(N3CCOCC3)oc12)N(C)c1cc(F)cc(F)c1 (stereo not shown) [Example 6.0, 8-(1-((3,5-difluorophenyl)(methyl)amino)ethyl)-2-morpholino-6-(pyrrolidine-1-carbonyl)-4H-chromen-4-one]
12 | CC(c1cc(C(=O)N(C)C)cc2c(=O)cc(N3CCO[C@H](C)C3)oc12)N(C)c1cc(F)cc(F)c1 (stereo partly drawn) [Example 10.01, 8-(1-((3,5-difluorophenyl)(methyl)amino)ethyl)-N,N-dimethyl-2-((R)-2-methylmorpholino)-4-oxo-4H-chromene-6-carboxamide]
11 | CC(c1cc(C(=O)N(C)CCO)cc2c(=O)cc(N3CCO[C@H](C)C3)oc12)N(C)c1cc(F)cc(F)c1 (stereo partly drawn) [Example 10.02, 8-(1-((3,5-difluorophenyl)(methyl)amino)ethyl)-N-(2-hydroxyethyl)-N-methyl-2-((R)-2-methylmorpholino)-4-oxo-4H-chromene-6-carboxamide]
9 | CC(c1cc(C(=O)N2CCC(O)CC2)cc2c(=O)cc(N3CCO[C@H](C)C3)oc12)N(C)c1cc(F)cc(F)c1 (stereo partly drawn) [Example 10.03, 8-(1-((3,5-difluorophenyl)(methyl)amino)ethyl)-6-(4-hydroxypiperidine-1-carbonyl)-2-((R)-2-methylmorpholino)-4H-chromen-4-one]
21 | CC(Nc1cc(F)cc(F)c1)c1cc(C(=O)N(C)C)cc2c(=O)cc(N3CCOC[C@@H]3C)oc12 (stereo partly drawn) [Example 11.00, 8-(1-(3,5-difluorophenylamino)ethyl)-N,N-dimethyl-2-((S)-3-methylmorpholino)-4-oxo-4H-chromene-6-carboxamide]

SMILES | IC50 [nM]
CC(Nc1ccc(F)cc1)c1cc(C(=O)N(C)C)cc2c(=O)cc(N3CCO[C@H](C)C3)oc12 (stereo partly drawn) [Example 9.0, 8-(1-(4-fluorophenylamino)ethyl)-N,N-dimethyl-2-((R)-2-methylmorpholino)-4-oxo-4H-chromene-6-carboxamide] | 5
CC(Nc1cc(F)cc(F)c1)c1cc(C(=O)N(C)C)cc2c(=O)cc(N3CCO[C@H](C)C3)oc12 (stereo partly drawn) [Example 9.01, 8-(1-(3,5-difluorophenylamino)ethyl)-N,N-dimethyl-2-((R)-2-methylmorpholino)-4-oxo-4H-chromene-6-carboxamide] | 4
CC(Nc1cc(F)cc(F)c1)c1cc(C(=O)N(C)C)cc2c(=O)cc(N3CCO[C@@H](C)C3)oc12 (stereo partly drawn) [Example 9.02, 8-(1-(3,5-difluorophenylamino)ethyl)-N,N-dimethyl-2-((S)-2-methylmorpholino)-4-oxo-4H-chromene-6-carboxamide] | 11
